Where a SMILES comes first, the peptide text is derived from it. The star is where a group is joined. Octanoyl = CCCCCCCC(=O)*; Boc = CC(C)(C)OC(=O)*
Target: not listed separately
Assay: Binding affinity to SARS-CoV-2 Main protease assessed as inhibition constant
Design: species or system Severe acute respiratory syndrome coronavirus 2
Conditions: not given

In the case of CN(C)C(=O)COc1ccc(-c2cccc3[nH]ncc23)cc1C=O, the Ki is reported as 37 nM.

System: SARS-CoV-2
Assay: Antiviral activity against SARS-CoV-2 infected in Vero E6 cells assessed as reduction in viral replication
Type: functional, organism-based
Conditions: Severe acute respiratory syndrome coronavirus 2, Vero C1008

Compared with O=C[C@H](C[C@@H]1CCNC1=O)NC(=O)[C@@H]1[C@H]2CCC[C@H]2CN1C(=O)CCc1ccc(Cl)cc1Cl, Cc1cc(C(=O)N[C@@H](C)C(=O)N[C@H](C(=O)N[C@@H](CC(C)C)[C@H](/C=C/C(=O)OCc2ccccc2)C[C@@H]2CCNC2=O)C(C)C)no1 is 31-fold higher in EC50: 540 nM for the first, 16800 nM for the second. The first is the more potent here.

Going from CN(C)C(=O)COc1ccc(-c2cccc3[nH]ncc23)cc1C=O to O=C1c2ccccc2CCC1CNCCc1ccc(O)cc1 (centres undefined), the EC50 rises from 2500 nM to 24000 nM (9.6-fold).

In the case of Cc1ccc(C(=O)C(C)CN2CCCCC2)cc1 (centres undefined) [TOLPERISONE], the EC50 is reported as 19200 nM.

System: SARS-CoV-2
Assay: Antiviral activity against SARS-CoV-2 infected in Vero E6 cells assessed as inhibition of viral replication
Type: functional, organism-based
Conditions: Severe acute respiratory syndrome coronavirus 2, Vero C1008

COc1cc(O)c2c(=O)c(O)c(-c3cc(O)c(O)c(O)c3)oc2c1 and COc1cc(O)c2c(c1)O[C@H](c1cc(O)c(O)c(O)c1)[C@@H](O)C2=O are the same in EC50: 8000 nM for the first, 8000 nM for the second.

Compound CCOC(=O)/C=C/[C@H](C[C@@H]1CCNC1=O)NC(=O)[C@@H](CC(=O)[C@@H](NC(=O)c1cc(C)on1)C(C)C)Cc1ccc(F)cc1 has an EC50 of 1870 nM.

System: not listed separately
Assay: Inhibition of SARS-CoV-2 Main protease
Design: species or system Severe acute respiratory syndrome coronavirus 2
Conditions: not given

CC(C)C[C@H](NC(=O)O[C@@H](C)c1ccccc1)C(=O)N[C@H](C=O)C[C@@H]1CCNC1=O and CC(C)C[C@H](NC(=O)OC(c1ccccc1)C1CCC(F)(F)CC1)C(=O)N[C@H](C=O)C[C@H]1CCNC1=O (some centres undefined) are the same in IC50: 130 nM for the first, 130 nM for the second.

First: CC(C)C[C@H](NC(=O)[C@@H](NC(=O)C1CCCCC1)C(C)C)C(=O)N[C@H](C=O)C[C@@H]1CCCNC1=O
Second: CCCCC1CCC(OC(=O)N[C@@H](CC(C)C)C(=O)N[C@H](C=O)C[C@H]2CCNC2=O)CC1 (some centres undefined)
The IC50 of the first is 1.8-fold higher: 240 nM for the first, 130 nM for the second.

Going from COc1cccc2[nH]c(C(=O)N3C[C@H]4[C@@H]([C@H]3C(=O)N[C@@H](C[C@@H]3CCNC3=O)C(=O)c3nc5ccccc5s3)C4(C)C)cc12 to COc1cccc2[nH]c(C(=O)N[C@@H](CC(C)C)C(=O)N[C@@H](C[C@@H]3CCNC3=O)C(=O)CO)cc12 [PF-00835231], the IC50 rises from 55 nM to 600 nM (11-fold).

C=CC(=O)N(c1ccc(C(C)(C)C)cc1)C(C(=O)NCCOC)c1cccnc1 (centres undefined) and C=CC(=O)N(c1ccc(C(C)(C)C)cc1)C(C(=O)NCCSC)c1cccnc1 (centres undefined) are the same in IC50: 2860 nM for the first, 2860 nM for the second.

Going from COc1cccc2[nH]c(C(=O)N[C@@H](CC(C)C)C(=O)N[C@@H](C[C@@H]3CCNC3=O)C(=O)COP(=O)(O)O)cc12 [LUFOTRELVIR] to COc1cccc2[nH]c(C(=O)N[C@@H](CC(C)C)C(=O)N[C@H](C=O)C[C@@H]3CCNC3=O)cc12, the IC50 rises from 9 nM to 130 nM (14-fold).

Going from CC(C)C[C@H](NC(=O)OCc1cccc(F)c1)C(=O)N[C@H](C=O)C[C@@H]1CCNC1=O to O=C[C@H](C[C@@H]1CCNC1=O)NC(=O)[C@H](CC1CC1)NC(=O)OCc1cccc(F)c1, the IC50 falls from 130 nM to 14 nM (9.3-fold).

COc1cc(O)c2c(=O)c(O)c(-c3cc(O)c(O)c(O)c3)oc2c1 and COc1cc(O)c2c(c1)O[C@H](c1cc(O)c(O)c(O)c1)[C@@H](O)C2=O are within 1.5-fold of each other in IC50: 300 nM for the first, 260 nM for the second.

O=C[C@H](C[C@@H]1CCNC1=O)NC(=O)[C@H](CC1CC1)NC(=O)OCc1ccccc1 and CCOC(=O)/C=C/[C@H](C[C@@H]1CCNC1=O)NC(=O)[C@@H](CC(=O)[C@@H](NC(=O)OCc1ccccc1)[C@H](C)OC(C)(C)C)CC(C)O (some centres undefined) are within 1.5-fold of each other in IC50: 130 nM for the first, 151 nM for the second.

Compared with CCCCCCNC(=O)n1cc(F)c(=O)[nH]c1=O [CARMOFUR], CCOC(=O)/C=C/[C@H](C[C@@H]1CCNC1=O)NC(=O)[C@@H](CC(=O)[C@@H](NC(=O)c1cc(C)on1)C(C)C)Cc1ccc(F)cc1 is 3800-fold higher in IC50: 18 nM for the first, 68000 nM for the second. The first is the more potent here.

C=CC(=O)N(c1ccc(C(C)(C)C)cc1)C(C(=O)NC(C)(C)C)c1cccnc1 (centres undefined) and C=CC(=O)N(c1ccc(C(C)(C)C)cc1)C(C(=O)NC)c1cccnc1 (centres undefined) are within 1.5-fold of each other in IC50: 2950 nM for the first, 2860 nM for the second.

CC(C)C[C@H](NC(=O)OC(C)(C)C1CCC(F)(F)CC1)C(=O)N[C@@H](C[C@H]1CCNC1=O)C(O)S(=O)(=O)O (some centres undefined) and [2H]c1c([2H])c([2H])c(COC(C)N[C@@H](CC(C)C)C(=O)N[C@H](C=O)C[C@@H]2CCNC2=O)c([2H])c1[2H] (some centres undefined) are within 1.5-fold of each other in IC50: 125 nM for the first, 160 nM for the second.

C=CC(=O)N(c1ccc(C(C)(C)C)cc1)C(C(=O)NCCc1cccc(F)c1)c1cccnc1 (centres undefined) and C=CC(=O)N(c1ccc(C(C)(C)C)cc1)C(C(=O)NCc1ccccc1)c1cccnc1 (centres undefined) are the same in IC50: 2860 nM for the first, 2860 nM for the second.

O=C(Oc1cncc(Cl)c1)c1cccs1 showed an IC50 of 81 nM.

System: not listed separately
Assay: Inhibition of SARS-Cov-2 Main protease by FRET assay
Design: species or system Severe acute respiratory syndrome coronavirus 2
Conditions: not given

Compared with CCOC(=O)/C=C/[C@H](C[C@@H]1CCNC1=O)NC(=O)[C@@H](CC(=O)[C@@H](NC(=O)c1cc(C)on1)C(C)C)Cc1ccc(F)cc1, CCOC(=O)/C=C/[C@H](C[C@@H]1CCNC1=O)NC(=O)[C@H](CC#N)n1cccc(NC(=O)c2cc(C)on2)c1=O is 2.1-fold higher in IC50: 47000 nM for the first, 101000 nM for the second.

System: not listed separately
Assay: Inhibition of recombinant SARS-CoV-2 Wuhan-Hu-1 main protease extracted from Escherichia coli cells using Dabcyl-KTSAVLQSGFRKME-Edans as substrate incubated for 60 mins by FRET assay
Design: species or system Severe acute respiratory syndrome coronavirus 2
Conditions: not given

Going from CC(C)(C)OC(=O)NCC(=O)N[C@@H](Cc1ccccc1)C(=O)N[C@H](C=O)Cc1c[nH]cn1 (Boc-Gly-Phe-His-aldehyde) to CC(=O)NCC(=O)N[C@@H](Cc1ccccc1)C(=O)N[C@H](C=O)Cc1c[nH]cn1 (Ac-Gly-Phe-His-aldehyde), the IC50 falls from 6490 nM to 2510 nM (2.6-fold).

Work on CCCCCCCC(=O)NCC(=O)N[C@@H](Cc1ccccc1)C(=O)N[C@H](C=O)Cc1c[nH]cn1 (Octanoyl-Gly-Phe-His-aldehyde) yielded an IC50 of 2370 nM.
